Results as given in DBAASP.
Converted amounts (≈) assume the structure as drawn.

Experiments:
Assay in all cases: ≥ marks a high value that may be exact or a test limit, other limits are often not marked, values filed in µg/mL are converted to µM
Staphylococcus aureus = system: Staphylococcus aureus
[1] = system: Staphylococcus epidermidis
Micrococcus luteus = system: Micrococcus luteus
Pseudomonas aeruginosa = system: Pseudomonas aeruginosa
Escherichia coli = system: Escherichia coli
Salmonella typhimurium = system: Salmonella typhimurium
Proteus mirabilis = system: Proteus mirabilis
Klebsiella pneumoniae = system: Klebsiella pneumoniae
Shigella dysenteriae = system: Shigella dysenteriae
Bacillus subtilis = system: Bacillus subtilis
[2] = system: Staphylococcus aureus ATCC 25923
[3] = system: Escherichia coli ATCC 25726
[4] = system: Escherichia coli DH5alpha
Staphylococcus xylosus = system: Staphylococcus xylosus
Serratia marcescens = system: Serratia marcescens
Saccharomyces cerevisiae = system: Saccharomyces cerevisiae
Candida albicans = system: Candida albicans
[5] = system: Micrococcus luteus ATCC 10240
Escherichia coli BL21AI = system: Escherichia coli BL21AI
Bacillus megaterium Bm11 = system: Bacillus megaterium Bm11
Escherichia coli ML-35 = system: Escherichia coli ML-35
[6] = system: Salmonella enterica subsp. enterica serovar Typhimurium ATCC 14028
[7] = system: Staphylococcus aureus ATCC 12493
[8] = system: Enterococcus faecalis NCTC 12697
[9] = system: Escherichia coli NCTC 10418
Escherichia coli UB1005 = system: Escherichia coli UB1005
[10] = system: Pseudomonas aeruginosa PAO1

CC(C)C[C@H](NC(=O)[C@H](C)NC(=O)CNC(=O)[C@H](CC(C)C)NC(=O)[C@@H](N)Cc1ccccc1)C(=O)N[C@@H](Cc1ccccc1)C(=O)N[C@@H](CCCCN)C(=O)N[C@@H](Cc1c[nH]c2ccccc12)C(=O)N[C@@H](C)C(=O)N[C@@H](CO)C(=O)N[C@@H](CCCCN)C(=O)O [FLGALFKWASK]
MIC (Staphylococcus aureus): 9.86 µM (≈ 12.5 µg/mL) | MIC [1]: 19.7 µM (≈ 25 µg/mL) | MIC (Micrococcus luteus): ≥ 39.4 µM | MIC (Pseudomonas aeruginosa): 158 µM (≈ 200 µg/mL) | MIC (Escherichia coli): 19.7 µM (≈ 25 µg/mL) | MIC (Salmonella typhimurium): ≥ 78.9 µM | MIC (Proteus mirabilis): ≥ 158 µM | MIC (Klebsiella pneumoniae): 9.86 µM (≈ 12.5 µg/mL) | MIC (Shigella dysenteriae): 19.7 µM (≈ 25 µg/mL) | MIC (Bacillus subtilis): 9.86 µM (≈ 12.5 µg/mL)

CC[C@H](C)[C@H](NC(=O)CN)C(=O)N[C@@H](Cc1ccccc1)C(=O)N[C@@H](CO)C(=O)N[C@@H](CCCCN)C(=O)N[C@@H](Cc1ccccc1)C(=O)NCC(=O)NCC(=O)N[C@@H](CCCCN)C(=O)N[C@@H](C)C(=O)N[C@H](C(=O)N[C@@H](CCCCN)C(=O)N[C@@H](CC(N)=O)C(=O)N[C@@H](CC(C)C)C(=O)N[C@@H](Cc1ccccc1)C(=O)N[C@H](C(=O)N[C@@H](CCCCN)C(=O)NCC(=O)N[C@@H](C)C(=O)N[C@@H](CCCCN)C(=O)N[C@@H](CC(N)=O)C(=O)N[C@H](C(=O)NCC(=O)N[C@@H](CCCCN)C(=O)N[C@@H](CCC(=O)O)C(=O)N[C@H](C(=O)NCC(=O)N[C@@H](CCSC)C(=O)N[C@@H](CC(=O)O)C(=O)N[C@H](C(=O)N[C@H](C(=O)N[C@@H](CCCN=C(N)N)C(=O)N[C@H](C(=O)NCC(=O)N[C@H](C(=O)N[C@@H](CC(=O)O)C(=O)N[C@H](C(=O)N[C@@H](C)C(=O)NCC(=O)N[C@H]1CSSC[C@@H](C(=O)O)NC(=O)[C@H](CCC(=O)O)NC(=O)CNC(=O)[C@H](CCCCN)NC(=O)[C@H]([C@@H](C)CC)NC(=O)[C@H](CCCCN)NC1=O)C(C)C)[C@@H](C)CC)[C@@H](C)O)[C@@H](C)CC)C(C)C)C(C)C)[C@@H](C)CC)[C@@H](C)CC)[C@@H](C)CC [GIFSKFGGKAIKNLFIKGAKNIGKEVGMDVIRTGIDVAGCKIKGEC]
MIC [2]: 13 µM (≈ 62.5 µg/mL) | MIC [3]: 13 µM (≈ 62.5 µg/mL)

CC(C)C[C@H](NC(=O)[C@H](CC(C)C)NC(=O)[C@H](CC(C)C)NC(=O)[C@H](CC(C)C)NC(=O)[C@H](CC(C)C)NC(=O)[C@H](CCCCN)NC(=O)[C@H](CCCCN)NC(=O)[C@@H](N)CCCCN)C(=O)N[C@@H](CCCCN)C(=O)N[C@@H](CCCCN)C(=O)N[C@@H](CCCCN)C(=O)O [KKKLLLLLKKK]
MIC [4]: 16 µM (≈ 21.6 µg/mL) | MIC (Staphylococcus xylosus): 8 µM (≈ 10.8 µg/mL)

CC[C@H](C)[C@H](NC(=O)CN)C(=O)N[C@@H](CC(C)C)C(=O)N[C@@H](CC(=O)O)C(=O)N[C@H](C(=O)N[C@@H](CC(C)C)C(=O)N[C@@H](CCCCN)C(=O)N[C@@H](CCC(N)=O)C(=O)N[C@@H](Cc1ccccc1)C(=O)N[C@@H](C)C(=O)N[C@@H](CCCCN)C(=O)NCC(=O)N[C@H](C(=O)NCC(=O)N[C@@H](CCCCN)C(=O)N[C@@H](CC(=O)O)C(=O)N[C@@H](CC(C)C)C(=O)N[C@H](C(=O)N[C@@H](CCCCN)C(=O)NCC(=O)N[C@@H](C)C(=O)N[C@@H](C)C(=O)N[C@@H](CCC(N)=O)C(=O)NCC(=O)N[C@H](C(=O)N[C@@H](CC(C)C)C(=O)O)C(C)C)C(C)C)C(C)C)[C@@H](C)O [GILDTLKQFAKGVGKDLVKGAAQGVL]
MIC (Serratia marcescens): ≥ 38.1 µM | MIC (Saccharomyces cerevisiae): 9.52 µM (≈ 25 µg/mL) | MIC [1]: 28.5 µM (≈ 75 µg/mL) | MIC (Micrococcus luteus): 0.952 µM (≈ 2.5 µg/mL) | MIC (Pseudomonas aeruginosa): 19 µM (≈ 50 µg/mL) | MIC (Escherichia coli): 9.52 µM (≈ 25 µg/mL) | MIC (Candida albicans): > 38.1 µM | MIC (Salmonella typhimurium): 28.5 µM (≈ 75 µg/mL) | MIC (Proteus mirabilis): 19 µM (≈ 50 µg/mL) | MIC (Shigella dysenteriae): 9.52 µM (≈ 25 µg/mL) | MIC (Bacillus subtilis): 19 µM (≈ 50 µg/mL)

CC(C)C[C@H](NC(=O)[C@H](CCCN=C(N)N)NC(=O)[C@@H]1CCCN1C(=O)[C@H](Cc1cnc[nH]1)NC(=O)[C@@H]1CCCN1C(=O)[C@@H](NC(=O)[C@@H]1CCCN1C(=O)[C@H](CCCN=C(N)N)NC(=O)[C@@H]1CCCN1C(=O)[C@H](CO)NC(=O)[C@H](Cc1ccc(O)cc1)NC(=O)[C@@H]1CCCN1C(=O)[C@H](CCCN=C(N)N)NC(=O)[C@@H]1CCCN1C(=O)[C@H](CCCCN)NC(=O)CN)[C@@H](C)O)C(N)=O [GKPRPYSPRPTPHPRL]
MIC [5]: 2.15 µM (≈ 4 µg/mL) | MIC (Escherichia coli BL21AI): 8.62 µM (≈ 16 µg/mL)

CC(C)C[C@H](NC(=O)[C@H](CCCN=C(N)N)NC(=O)[C@H](CCCN=C(N)N)NC(=O)[C@H](Cc1ccccc1)NC(=O)[C@H](CCCN=C(N)N)NC(=O)CN)C(=O)NCC(=O)N[C@@H](CCCN=C(N)N)C(=O)N[C@@H](CCCCN)C(=O)N[C@@H](Cc1ccccc1)C(=O)N[C@@H](CCCCN)C(=O)N[C@@H](CCCCN)C(=O)N[C@@H](CC(C)C)C(=O)N[C@@H](Cc1ccccc1)C(=O)N[C@@H](CCCCN)C(=O)N[C@@H](CCCCN)C(=O)N[C@@H](Cc1ccc(O)cc1)C(=O)NCC(=O)N1CCC[C@H]1C(=O)O [GRFRRLGRKFKKLFKKYGP]
MIC (Bacillus megaterium Bm11): 8 µM (≈ 19.1 µg/mL) | MIC (Escherichia coli ML-35): 4 µM (≈ 9.53 µg/mL) | MIC [2]: 8 µM (≈ 19.1 µg/mL) | MIC [6]: 8 µM (≈ 19.1 µg/mL)

CC(C)C[C@H](NC(=O)[C@H](C)NC(=O)[C@H](Cc1c[nH]c2ccccc12)NC(=O)[C@H](CCCCN)NC(=O)[C@H](CC(C)C)NC(=O)[C@@H](N)Cc1ccccc1)C(=O)N[C@@H](CCCCN)C(=O)N[C@H](C(=O)N[C@@H](C)C(=O)N[C@@H](C)C(=O)N[C@@H](CCCCN)C(N)=O)C(C)C [FLKWALKVAAK]
MIC [7]: ≥ 512 µM | MIC [8]: ≥ 512 µM | MIC [9]: ≥ 512 µM

CC[C@H](C)[C@H](NC(=O)[C@@H]1CCCN1C(=O)[C@H](CCCN=C(N)N)NC(=O)[C@@H]1CCCN1C(=O)[C@H](Cc1cnc[nH]1)NC(=O)[C@H](CO)NC(=O)[C@@H](NC(=O)[C@@H]1CCCN1C(=O)[C@H](CCCN=C(N)N)NC(=O)[C@@H]1CCCN1C(=O)[C@H](CO)NC(=O)[C@H](Cc1ccc(O)cc1)NC(=O)[C@@H]1CCCN1C(=O)[C@H](CCCN=C(N)N)NC(=O)[C@@H]1CCCN1C(=O)[C@H](CCCCN)NC(=O)CN)[C@@H](C)O)C(=O)N[C@@H](CCCN=C(N)N)C(N)=O [GKPRPYSPRPTSHPRPIR]
MIC [5]: 3.81 µM (≈ 8 µg/mL) | MIC (Escherichia coli BL21AI): ≥ 61 µM

CC[C@H](C)[C@H](NC(=O)[C@H](CCCN=C(N)N)NC(=O)[C@H](CCCN=C(N)N)NC(=O)[C@@H]1CCCN1C(=O)[C@@H]1CCCN1C(=O)[C@H](CCCN=C(N)N)NC(=O)[C@@H]1CCCN1C(=O)[C@H](CCCN=C(N)N)NC(=O)[C@@H]1CCCN1C(=O)[C@H](CC(C)C)NC(=O)[C@H](Cc1ccc(O)cc1)NC(=O)[C@@H]1CCCN1C(=O)[C@@H]1CCCN1C(=O)[C@H](CCCCN)NC(=O)[C@H](CC(=O)O)NC(=O)[C@@H](N)C(C)C)C(=O)N[C@@H](Cc1ccc(O)cc1)C(=O)N[C@@H](CC(N)=O)C(=O)N[C@@H](CC(N)=O)C(=O)N[C@@H](CCCN=C(N)N)C(N)=O [VDKPPYLPRPRPPRRIYNNR]
MIC [5]: 3.19 µM (≈ 8 µg/mL) | MIC (Escherichia coli BL21AI): 3.19 µM (≈ 8 µg/mL)

CC[C@H](C)[C@H](NC(=O)[C@H](CCCN=C(N)N)NC(=O)[C@H](CCCN=C(N)N)NC(=O)[C@@H]1CCCN1C(=O)[C@@H]1CCCN1C(=O)[C@H](CCCN=C(N)N)NC(=O)[C@@H]1CCCN1C(=O)[C@H](CCCN=C(N)N)NC(=O)[C@@H]1CCCN1C(=O)[C@H](CC(C)C)NC(=O)[C@H](Cc1ccc(O)cc1)NC(=O)[C@@H]1CCCN1C(=O)[C@@H]1CCCN1C(=O)[C@H](CCCCN)NC(=O)[C@H](CC(=O)O)NC(=O)[C@@H](N)C(C)C)C(=O)N[C@@H](Cc1ccc(O)cc1)C(=O)N[C@@H](CC(N)=O)C(=O)N[C@@H](Cc1cnc[nH]1)C(N)=O [VDKPPYLPRPRPPRRIYNH]
MIC (Escherichia coli UB1005): 2.11 µM (≈ 5 µg/mL) | MIC [5]: 6.75 µM (≈ 16 µg/mL) | MIC (Escherichia coli BL21AI): 6.75 µM (≈ 16 µg/mL) | MIC [10]: 54 µM (≈ 128 µg/mL) | MIC [2]: 38.2 µM (≈ 90.5 µg/mL)
